Test system: DEN-induced liver cancer mouse model (male)
Assay: DEN-induced liver cancer mouse model: liver weight, plasma AFP, tumor number, H&E
Assay type: in vivo, C57BL/6 mouse
Experimental: The mouse used in the experiment are 7-week old male and female C57BL/6 mouse. The mouse is obtained from Orient Bio (ORIENT Bio, Gyeonggi-do Province, Korea) and is adapted in an environment that the contrast is controlled at a temperature of 22±2° C. and a humidity of 55 to 60% in 12-hour increments, and a standard diet is provided for 1 week. All animal experiments are performed in accordance with the regulations of the Laboratory Animal Ethics Committee of Sungshin Women's University. After adapting a male mouse born from the mating of the adapted mouse in the same environment for 2 weeks, a DEN-induced liver cancer mouse model is generated by a method of intraperitoneally administering a liver cancer-causing substance, diethylnitrosamine (DEN, 25 mg/kg). The salsolinol (200 mg/kg) is administered for 6 months through intraperitoneal injection three times per week from the time when the DEN-induced liver cancer mouse model (male) became 7 weeks of age. After the mouse is sacrificed, the experiment is performed. After the experiment is completed, the experimental animals are fasted for 4 hours, sacrificed with CO2 gas, and the blood collected from the heart is heparinized. And after that, centrifuge separation is performed at 3,000 rpm for 15 minutes to separate plasma. AFP (α-Fetoprotein) analysis is measured by enzyme-linked immunosorbent assay (ELISA). The separated plasma is diluted 20 times with a diluted solution, and after that, a 50 μl of standard curve reagent and plasma are inserted into a coated 96-well plate, and after that, the culturing is performed for 2 hours at room temperature. The culture medium is removed, and washing is performed 3 times with 100 μl of wash buffer. After adding 100 μl of prepared AFP conjugate to each well, the culturing is performed for 2 hours at room temperature. The culture medium is removed, and washing is performed 3 times with 100 μl of wash buffer. After adding 100 μl of reaction reagent to each well, the culturing is performed for 30 minutes in a dark place. After adding the same amount of reaction stop reagent to each well, tapping is lightly performed to mix thoroughly. With respect to the degree of reaction, after measuring the absorbance at 450 nm, the concentration of AFP is quantified by using a standard curve of a SpectraMax 190 microplate plate reader (Molecular Devices, LCC. San Jose, Calif.). The liver tissue is separated, the number of tumors is measured, and the degree of tumor formation is illustrated by a picture. After fixing 10% formaldehyde for morphological analysis, a paraffin section slide having a thickness of 4 μm is requested to be manufactured by Notus Co., Ltd. After removing paraffin No. 3 with xylene and re-dehydration in 95% and 70% alcohol, staining is performed by using Mayer's Hematoxylin. A male DEN-induced liver cancer mouse model is prepared by intraperitoneal (IP) administration of DEN 25 mg/kg, and the salsolinol 200 mg/kg is administered intraperitoneally to the model, and an effect of the salsolinol on liver cancer treatment is checked.

## CC1NCCc2cc(O)c(O)cc21 (stereo not drawn) [salsolinol, 6,7-dihydroxy-1-methyl-1,2,3,4-tetrahydroisoquinoline]
DEN+SAL liver tissue
  abnormal types of hepatocytes (H&E staining): not observed
DEN+SAL male mice, salsolinol 200 mg/kg i.p.
  decrease in number of liver cancer tissues compared with DEN model: about 60%
DEN+SAL male mice, salsolinol 200 mg/kg i.p. three times per week, 6 months
  weight of the liver tissue: slightly equal to that of the normal mouse
DEN+SAL male mice, salsolinol 200 mg/kg i.p., DEN model about 10
  average number of liver cancer tissues on the liver surface: four
DEN+SAL male mice, salsolinol 200 mg/kg i.p., normal mouse 50, DEN model 720 ng/ml
  plasma AFP level (average): 200 ng/mL
Normal mouse administered with salsolinol alone (SAL)
  liver cancer tissue on the liver surface: no liver cancer tissue is found
